Experimental findings from patent publication US7160874B2, “Phenylalanine derivatives” (Ajinomoto Co., Inc., priority 1999, dated 2007) are described below.

Structures are written as SMILES.

One experiment has as its target T1, integrin α4β7 (Homo sapiens, UniProt P13612+P26010).
T1 construct: lymphoma cell strain RPMI-8866 of human B cells, known to express integrin α4β7; endogenous in cells; host or cells: RPMI-8866 (human B lymphoma cell line)
T1 sequence (P13612 34-1032): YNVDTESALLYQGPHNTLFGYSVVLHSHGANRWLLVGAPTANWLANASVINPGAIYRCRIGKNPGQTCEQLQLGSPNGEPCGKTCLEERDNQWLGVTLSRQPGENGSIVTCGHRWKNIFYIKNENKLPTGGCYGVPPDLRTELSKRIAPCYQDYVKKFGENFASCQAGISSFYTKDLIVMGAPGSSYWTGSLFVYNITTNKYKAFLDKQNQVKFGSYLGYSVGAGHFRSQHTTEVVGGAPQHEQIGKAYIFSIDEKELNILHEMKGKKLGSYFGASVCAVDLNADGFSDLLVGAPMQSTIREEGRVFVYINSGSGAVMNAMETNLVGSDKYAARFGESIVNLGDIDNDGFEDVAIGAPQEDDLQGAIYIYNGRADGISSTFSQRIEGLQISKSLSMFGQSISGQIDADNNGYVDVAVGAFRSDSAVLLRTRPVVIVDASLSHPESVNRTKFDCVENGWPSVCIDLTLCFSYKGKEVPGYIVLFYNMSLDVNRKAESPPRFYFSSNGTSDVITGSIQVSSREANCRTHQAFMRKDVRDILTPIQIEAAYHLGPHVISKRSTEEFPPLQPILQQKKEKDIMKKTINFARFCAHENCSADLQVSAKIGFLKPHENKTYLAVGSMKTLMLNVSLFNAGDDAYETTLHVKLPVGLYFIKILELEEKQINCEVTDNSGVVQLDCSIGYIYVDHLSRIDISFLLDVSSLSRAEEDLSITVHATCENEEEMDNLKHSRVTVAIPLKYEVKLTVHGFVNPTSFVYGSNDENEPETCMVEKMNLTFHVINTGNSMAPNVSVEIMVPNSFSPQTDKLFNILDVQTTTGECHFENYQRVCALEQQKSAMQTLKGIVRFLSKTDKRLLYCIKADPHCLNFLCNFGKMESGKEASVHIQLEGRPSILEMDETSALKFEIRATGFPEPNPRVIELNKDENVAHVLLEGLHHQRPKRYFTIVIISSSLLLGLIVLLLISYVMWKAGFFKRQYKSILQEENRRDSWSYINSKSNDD
T1 sequence (P26010 20-798): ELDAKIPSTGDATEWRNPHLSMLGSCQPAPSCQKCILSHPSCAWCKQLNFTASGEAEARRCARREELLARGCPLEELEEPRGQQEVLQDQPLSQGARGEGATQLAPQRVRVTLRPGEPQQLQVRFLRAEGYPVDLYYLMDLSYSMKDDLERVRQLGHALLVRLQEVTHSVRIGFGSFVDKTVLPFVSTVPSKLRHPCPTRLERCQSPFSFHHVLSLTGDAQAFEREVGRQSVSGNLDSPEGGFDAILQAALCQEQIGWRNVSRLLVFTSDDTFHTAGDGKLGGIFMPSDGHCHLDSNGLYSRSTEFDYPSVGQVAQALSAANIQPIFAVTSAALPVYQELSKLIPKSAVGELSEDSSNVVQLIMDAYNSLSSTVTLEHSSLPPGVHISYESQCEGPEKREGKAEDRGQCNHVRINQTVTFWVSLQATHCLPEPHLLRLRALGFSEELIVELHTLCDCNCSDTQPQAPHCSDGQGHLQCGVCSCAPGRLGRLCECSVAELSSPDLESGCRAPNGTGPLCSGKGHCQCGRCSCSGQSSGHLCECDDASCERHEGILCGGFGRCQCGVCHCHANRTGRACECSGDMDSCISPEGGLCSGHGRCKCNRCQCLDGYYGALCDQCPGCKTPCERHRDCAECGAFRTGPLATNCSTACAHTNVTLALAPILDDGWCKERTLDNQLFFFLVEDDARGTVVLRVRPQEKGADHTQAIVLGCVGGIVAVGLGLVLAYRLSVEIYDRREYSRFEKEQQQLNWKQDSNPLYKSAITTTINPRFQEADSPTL
The experiment in a line: VCAM antagonistic activity (VCAM-1/α4β7 binding assay). The settings on record: RPMI-8866 cells binding to VCAM-1; read-out: VCAM antagonistic activity (IC50) α4β7. Format: cell-based. On the procedure:
(Test Example) VCAM Antagonistic Activity (VCAM-1/α4β7 Binding Assay):
The capacity of a test substance antagonistic to the binding of lymphoma cell strain RPMI-8866 of human B cells, known to express integrin α4β7, to VCAM-1 was determined.
(§1) 100 μl/well of a solution (500 ng/ml) of recombinant human VCAM-1 (R & D systems) solution diluted with buffer A (0.1 M NaHCO3, pH 9.6) was added to a micro titer plate having 96 wells (Nunc Maxisorp). After the incubation at 4° C. overnight, unbound VCAM-1 was removed by washing once with PBS. After completion of the washing, a buffer (buffer B) obtained by diluting Block Ace® (Dainippon Pharmaceutical Co., Ltd.) with PBS to 1/4 concentration was added in an amount of 150 μl/well. After the incubation at room temperature for 1 hour, buffer B was removed and the plate was washed with PBS once.
RPMI-8866 cells were incubated in Dulbecco modified Eagle medium containing 10 μg/ml of Calcein-AM (Wako Pure Chemical Industries, Ltd.) (SIGMA, hereinafter referred to as “DMEM”) at 37° C. for 30 minutes to label with fluorescence. The cells were again suspended in a binding buffer (20 mM HEPES, DMEM containing 0.1% BSA) containing 4 mM of MnCl2.
(§2) 50 μl of a test substance of various concentrations obtained by the dilution with the binding buffer was added to the plate. Immediately thereafter, 50 μl (final volume: 100 μl/well) of the fluorescent RPMI-8866 cells (4×10^6 cells/ml) were added thereto, and they were incubated at room temperature for 30 minutes. After the shaking on a plate shaker (IKA MTS-4) at 800 rpm for 30 seconds, the solution was immediately removed to remove the unbound cells. The fluorescence quantity of the bound cells remaining in the wells was determined with a fluorescent plate reader (Wallac 1420 ARVO multi-label counter) (filter excitation wave length: 485 nm, emission wave length: 535 nm). The fluorescent strength thus obtained is proportional to the number of RPMI-8866 cells bound to VCAM-1 and remaining on the plate. The binding rate of each test material in various concentrations was determined while the fluorescent strength of the test material-free well was determined to be 100%. The concentration IC50 for the 50% binding inhibition was calculated.
(§3) The activities were classified into group A wherein IC50 was 0.02 μmol/l or below, group B wherein IC50 was higher than 0.02 μmol/l and not above 0.1 μmol/l, group C wherein IC50 was higher than 0.1 μmol/l and not above 2 μmol/l, and group D wherein IC50 was higher than 2 μmol/l and not above 10 μmol/l.

Another experiment has as its target T2, integrin α4β1 (Homo sapiens, UniProt P05556+P13612).
T2 construct: cell strain Jurkat (ATCC TIB-152) of human T cells, known to express integrin α4β1; host or cells: Jurkat (human T cell line)
Description: VCAM antagonist activity (VCAM-1/α4β1 binding assay). To be noted: Jurkat cells binding to VCAM-1; read-out: VCAM antagonistic activity (IC50) α4β1. Format: cell-based. On the procedure:
(Test Example) VCAM Antagonist Activity (VCAM-1/α4β1 Binding Assay):
The capacity of a test substance antagonistic to the binding of cell strain Jurkat (ATCC TIB-152) of human T cells, known to express integrin α4β1, to VCAM-1 was determined.
as §1
Jurkat cells were washed with Dulbecco modified Eagle medium (SIGMA, hereinafter referred to as “DMEM”) twice and then incubated in DMEM containing 10 μg/ml of Calcein-AM (Wako Pure Chemical Industries, Ltd.) at 37° C. in dark place for 30 minutes to label with fluorescence. The cells were again suspended in a binding buffer (20 mM HEPES, DMEM containing 0.1% BSA).
as §2, with “Jurkat” for “RPMI-8866”
as §3

T2 sequence (P05556 21-798, one chain of several): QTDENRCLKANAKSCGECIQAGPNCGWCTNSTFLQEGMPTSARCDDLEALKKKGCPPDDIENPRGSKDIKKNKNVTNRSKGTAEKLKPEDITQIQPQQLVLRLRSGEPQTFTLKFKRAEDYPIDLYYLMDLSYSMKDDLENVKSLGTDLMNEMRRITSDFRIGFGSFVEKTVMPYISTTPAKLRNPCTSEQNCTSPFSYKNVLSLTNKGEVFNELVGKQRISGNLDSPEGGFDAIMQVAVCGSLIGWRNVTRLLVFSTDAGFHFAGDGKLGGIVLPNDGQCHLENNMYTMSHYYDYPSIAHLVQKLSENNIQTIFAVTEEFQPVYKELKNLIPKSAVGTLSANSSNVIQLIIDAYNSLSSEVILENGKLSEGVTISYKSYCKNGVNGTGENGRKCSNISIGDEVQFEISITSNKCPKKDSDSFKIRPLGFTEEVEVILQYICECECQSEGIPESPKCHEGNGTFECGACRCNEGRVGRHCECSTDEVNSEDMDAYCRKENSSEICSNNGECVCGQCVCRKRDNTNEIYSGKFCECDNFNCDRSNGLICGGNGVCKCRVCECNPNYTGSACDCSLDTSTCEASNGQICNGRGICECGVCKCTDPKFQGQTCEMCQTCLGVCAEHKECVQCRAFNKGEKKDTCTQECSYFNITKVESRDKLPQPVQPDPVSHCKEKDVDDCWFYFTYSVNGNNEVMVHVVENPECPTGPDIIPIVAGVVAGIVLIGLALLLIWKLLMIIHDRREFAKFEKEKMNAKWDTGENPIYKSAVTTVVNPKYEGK

As to `CCCC(CC)(C(=O)NC(Cc1ccc(OCc2c(Cl)cccc2Cl)cc1)C(=O)O)C(=O)N1CCCC1` (mixture of isomers) [Example 37], the results for the IC50 on integrin α4β7 and at integrin α4β1 were 0.02 to 0.1 µM and 2 to 10 µM, respectively.
With `CCC(C)(C(=O)NC(Cc1ccc(OCc2c(Cl)cccc2Cl)cc1)C(=O)O)C(=O)N1CCCC1` (mixture of isomers) [Example 38], the 50% inhibitory concentration (IC50) on integrin α4β7 and on integrin α4β1 was 0.1 to 2 µM each time.
In the case of `CCC(CCOC)(C(=O)NC(Cc1ccc(OCc2c(Cl)cccc2Cl)cc1)C(=O)O)C(=O)N1CCCC1` (mixture of isomers) [Example 43], the 50% inhibitory concentration (IC50) – broadly, the midpoint of a concentration-inhibition curve – was less than 0.02 µM on integrin α4β7 and 0.1 to 2 µM on integrin α4β1.
For `CCC(CC)(C(=O)NC(Cc1ccc(OCc2c(Cl)cccc2Cl)cc1)C(=O)O)C(=O)N1CCC(N)C1` (mixture of isomers) [Example 47], the IC50 was less than 0.02 µM on integrin α4β7 and 0.1 to 2 µM at integrin α4β1.
`CCC(CC)(C(=O)NC(Cc1ccc(OCc2c(Cl)cccc2Cl)cc1)C(=O)O)C(=O)N1CCCC(O)C1` (mixture of isomers) [Example 48]: the IC50 lay within 0.02 to 0.1 µM on integrin α4β7 and 0.1 to 2 µM at integrin α4β1.
For the molecule `CCC(CC)(C(=O)NC(Cc1ccc(OCc2c(Cl)cccc2Cl)cc1)C(=O)O)C(=O)N1CCCCC1C(N)=O` (mixture of isomers) [Example 51], the figures for the IC50 on integrin α4β7 and on integrin α4β1 were 0.02 to 0.1 µM and 0.1 to 2 µM, respectively.
`CCC(CC)(C(=O)NC(Cc1ccc(OCc2c(Cl)cccc2Cl)cc1)C(=O)O)C(=O)N1CCCC(CO)C1` (mixture of isomers) [Example 60]: the concentration for half-maximal inhibition (IC50) at integrin α4β7 and on integrin α4β1 was 0.1 to 2 µM each time.
Regarding `CCC(CC)(C(=O)N[C@@H](Cc1ccc(OCc2c(Cl)cccc2Cl)cc1)C(=O)O)C(=O)N1C[C@@H](O)[C@H](O)C1` (relative stereo) [Example 83, N-(2-{[(trans-3,4-dihydroxypyrrolidine)-1-yl]carbonyl}-2-ethyl-butanoyl)-O-(2,6-dichlorobenzyl)-L-tyrosine], the IC50 on integrin α4β7 is less than 0.02 µM; at integrin α4β1, 0.02 to 0.1 µM.
As for `CN(C)C(=O)C(C)(C)C(=O)N[C@@H](Cc1ccc(OCc2c(Cl)cccc2Cl)cc1)C(=O)O` [Example 2, N-[2-(dimethylaminocarbonyl)-2-methyl-propanoyl]-O-(2,6-dichlorobenzyl)-L-tyrosine], the values for the IC50 on integrin α4β7 and at integrin α4β1 were 0.02 to 0.1 µM and 0.1 to 2 µM, respectively.
Take `CCC(CC)(C(=O)N[C@@H](Cc1ccc(OCc2c(Cl)cccc2Cl)cc1)C(=O)O)C(=O)N(C)C` [Example 3]: the IC50 at integrin α4β7 is less than 0.02 µM; at integrin α4β1 it was 0.1 to 2 µM.
The like results for `CCC(CC)(C(=O)Nc1ccc(O)cc1)C(=O)N[C@@H](Cc1ccc(OCc2c(Cl)cccc2Cl)cc1)C(=O)O` [Example 5] were, in that order, 0.1 to 2 µM and 0.1 to 2 µM.
For the molecule `CCC(CC)(C(=O)NCCc1ccc(O)cc1)C(=O)N[C@@H](Cc1ccc(OCc2c(Cl)cccc2Cl)cc1)C(=O)O` [Example 6], the results for the IC50 on integrin α4β7 and at integrin α4β1 were 0.1 to 2 µM and 2 to 10 µM, respectively.
Consider `CCC(CC)(C(=O)N[C@@H](Cc1ccc(OCc2c(Cl)cccc2Cl)cc1)C(=O)O)C(=O)N1CCN(c2ccc(O)cc2)CC1` [Example 7], for which the IC50 at integrin α4β7 and at integrin α4β1 was 0.1 to 2 µM each time.
Turning to `CN(C)C(=O)C1(C(=O)N[C@@H](Cc2ccc(OCc3c(Cl)cccc3Cl)cc2)C(=O)O)CCCC1` [Example 8], the half-maximal inhibitory concentration (IC50) at integrin α4β7 and at integrin α4β1 was 0.1 to 2 µM in each case.
For `O=C(O)[C@H](Cc1ccc(OCc2c(Cl)cccc2Cl)cc1)NC(=O)C1(C(=O)N2CCN(c3ccc(O)cc3)CC2)CCCC1` [Example 9], the 50% inhibitory concentration (IC50) on integrin α4β7 and on integrin α4β1 was 0.1 to 2 µM in each case.
For the molecule `CCC(CC)(C(=O)N[C@@H](Cc1ccc(OCc2c(Cl)cccc2Cl)cc1)C(=O)O)C(=O)N1CCCCC1` [Example 17], the IC50 at integrin α4β7 and on integrin α4β1 was 0.1 to 2 µM in each case.
Consider `CN(C)C(=O)C1(C(=O)N[C@@H](Cc2ccc(OCc3c(Cl)cccc3Cl)cc2)C(=O)O)CC1` [Example 21], for which the values for the IC50 at integrin α4β7 and on integrin α4β1 were 0.1 to 2 µM and 2 to 10 µM, respectively.
Regarding `CN(C(=O)C1(C(=O)N[C@@H](Cc2ccc(OCc3c(Cl)cccc3Cl)cc2)C(=O)O)CC1)c1ccccc1` [Example 23], the IC50 at integrin α4β7 was in the range of 0.1 to 2 µM; on integrin α4β1, 2 to 10 µM.
`CN(C)C(=O)C1(C(=O)N[C@@H](Cc2ccc(OCc3c(Cl)cccc3Cl)cc2)C(=O)O)CCC1` [Example 29]: the IC50 at integrin α4β7 and on integrin α4β1 was 0.1 to 2 µM in each case.
